# Laboratory results taken from ChEMBL document CHEMBL5370573, “Isolation of Hydrazide-alkenes with Different Amino Acid Origins from an Azoxy-alkene-Producing Mutant of Streptomyces rochei 7434AN4” (J Nat Prod, 2023).
# Experiments:
# [1] = Inhibition of quorum sensing system in Chromobacterium violaceum CV026 assessed as reduction in violacein production at 1 mg/ml measured after 24 hrs relative to control
# [2] = Inhibition of quorum sensing system in Chromobacterium violaceum CV026 assessed as reduction in violacein production measured after 24 hrs
inhibition [1] [%],IC50 [2] [µg/mL],SMILES
40,,CCCC/C=C\NN(C(C)=O)C(=O)C(C)C
,750,CCCC/C=C\[N+]([O-])=N\[C@H](C)[C@H](O)CO
40,,CCCC/C=C\NN(C(C)=O)C(=O)C(C)CC (stereo not drawn)
